Legend:
[1] = system: Karpas422 cells; experiment: Tumor cell growth inhibition assay; type: cell-based; settings: Homo sapiens, KARPAS-422, 144 h, read-out: Tumor Growth Inhibition in Karpas-422 (IC50, uM), Karpas422 cells, six days, ATPlite
Protocol: Tumor Cell Growth inhibition Assay
Karpas422 cells were seeded into a 96-well plate at 2,000 cells/well in 150 ul medium (Alpha-MEM containing 10% FBS, […] Normocin, and […] Gentamycin, Invitrogen). A HP D300 digital dispenser was used to dose cells with DMSO or test compounds across a 10-point range of concentrations (high dose of 5 uM), and cultures were grown in a humidified 5% CO2 incubator at 37° C. After six days, plates were removed from incubator and equilibrated to room temperature. An equal volume of ATPlite assay reagent was added to each well, and samples were processed according to manufacturer's instructions (Perkin Elmer). Luminescent signal was measured using an Envision plate reader equipped with a US-Luminescence detector.

[2] = system: BCL6 reporter construct (3xBCL6-TK-Luc) in SuDHL4 cells; experiment: Cell-based luciferase assay; settings: Homo sapiens, SU-DHL-4, 48 h, read-out: Luciferase-Assay EC50, uM), SuDHL4-3xBCL6-TK-Luc cells, two days, high dose 10 uM
Protocol: Cell-Based Luciferase Assay
A BCL6 reporter construct containing three copies of the consensus BCL6 binding site, the TK promoter, and the firefly luciferase gene was stably expressed in SuDHL4 cells after lentivirus infection and selection with Blasticidin. SuDHL4-3×BCL6-TK-Luc cells were seeded into a Viewplate 384-well assay dish at 15,000 cells/well in 25 ul medium (Alpha-MEM high glucose containing 10% FBS, 25 mM HEPES, […] GlutaMAX, 100 ug/ml Normocin, and […] Gentamycin, Invitrogen). A HP D300 digital dispenser was used to dose cells with DMSO or test compounds across a 10-point range of concentrations (high dose of 10 uM), and cultures were grown in a humidified 5% CO2 incubator at 37° C. After two days, plates were removed from the incubator and equilibrated to room temperature. An equal volume of neolite reporter gene assay reagent was added to each well, and samples were processed according to manufacturer's instructions (Perkin Elmer). Luminescent signal was measured using an Envision plate reader equipped with a US-Luminescence detector.

[3] = target: BCL6 BTB domain (Homo sapiens (Human), UniProt P41182); experiment: Surface plasmon resonance (SPR) assay; type: binding; settings: BCL6 BTB domain captured on SA chip, single cycle kinetics

| SMILES | IC50 [1] [µM] | EC50 [2] [µM] | Kd [3] [nM] |
| --- | --- | --- | --- |
| Cc1nc2c(c(-c3cc(Cl)c(O)c(C(N)=O)c3)cn2CC(=O)Nc2cc(N3CCOC[C@@H]3C)nc(F)c2Cl)c(=O)n1C [Compound I-315] | 0.147 | 0.114 | 14.2 |
| CN(C)c1cc(NC(=O)Cn2cc(-c3cc(C(N)=O)c(O)c(F)c3F)c3c(=O)n(C)cnc32)c(Cl)c(F)n1 [Compound I-420] | 0.383 | 0.429 | 16.3 |
| C[C@H]1CN(C)CCN1c1cc(NC(=O)Cn2cc(-c3cc(Cl)c(O)c(C(N)=O)c3)c3c(=O)[nH]c(-c4ccccc4)nc32)c(Cl)cn1 [Compound I-261, (S)-3-chloro-5-(7-(2-((5-chloro-2-(2,4-dimethylpiperazin-1-yl)pyridin-4-yl)amino)-2-oxoethyl)-4-oxo-2-phenyl-4,7-dihydro-3H-pyrrolo[2,3-d]pyrimidin-5-yl)-2-hydroxybenzamide] | 0.225 | 0.65 | 39.8 |
| CCN(C)c1nc2c(c(-c3cc(Cl)c(O)c(C(N)=O)c3)cn2CC(=O)Nc2cc(N3CCOC[C@@H]3C)ncc2Cl)c(=O)n1C [Compound I-269, (S)-3-chloro-5-(7-(2-((5-chloro-2-(3-methylmorpholino)pyridin-4-yl)amino)-2-oxoethyl)-2-(ethyl(methyl)amino)-3-methyl-4-oxo-4,7-dihydro-3H-pyrrolo[2,3-d]pyrimidin-5-yl)-2-hydroxybenzamide] | 1.7 | 8.55 | 157 |
| Cc1cc(NC(=O)Cn2cc(-c3cc(C(N)=O)c(O)c(F)c3F)c3c(=O)n(C)cnc32)c(Cl)cn1 [Compound I-333] | 4.21 | 2.42 | 145 |
| C[C@H]1CN(CC(F)(F)F)CCN1c1cc(NC(=O)Cn2cc(-c3cc(Cl)c(O)c(C(N)=O)c3)c3c(=O)n(C)c(C(F)(F)F)nc32)c(Cl)cn1 [Compound I-253] |  |  | 2100 |
| Cn1cnc2c(c(-c3cc(Cl)c(O)c(C(N)=O)c3)cn2CC(=O)NC2CCCc3ccncc32)c1=O (centres unmarked) [Compound I-255] |  |  | 6110 |
| Cn1c(NCC2CC2)nc2c(c(-c3cc(Cl)c(O)c(C(N)=O)c3)cn2CC(=O)Nc2cc(N3CCOCC3)ncc2Cl)c1=O [Compound I-124] | 0.434 | 0.371 | 86 |
| Cn1cnc2c(c(-c3cc(Cl)c(O)c(C(N)=O)c3)cn2CC(=O)Nc2cc(N3CCOC4CC43)ncc2Cl)c1=O (centres unmarked) [Compound I-244] | 0.169 | 0.279 | 8.46 |
| C[C@H]1COCCN1c1cc(NC(=O)Cn2cc(-c3cc(Cl)c(O)c(C(N)=O)c3)c3c(=O)n(C)c(N(C)C)nc32)c(Cl)cn1 [Compound I-263, (S)-3-chloro-5-(7-(2-((5-chloro-2-(3-methylmorpholino)pyridin-4-yl)amino)-2-oxoethyl)-2-(dimethylamino)-3-methyl-4-oxo-4,7-dihydro-3H-pyrrolo[2,3-d]pyrimidin-5-yl)-2-hydroxybenzamide] | 0.745 | 2.07 |  |
| CN1CC2CC(C1)N2c1cc(NC(=O)Cn2cc(-c3cc(C(N)=O)c(O)c(F)c3F)c3c(=O)n(C)cnc32)c(Cl)cn1 [Compound I-451] |  |  | 157 |
| [2H]C1(C([2H])([2H])N2CCN(c3cc(NC(=O)Cn4cc(-c5cc(C(N)=O)c(O)c(F)c5F)c5c(=O)n(C)cnc54)c(Cl)cn3)[C@@H](C)C2)CC1 [Compound I-370] | 1.31 | 0.61 |  |
| CCOc1cc(-c2cn(CC(=O)Nc3cc(N4CCOC[C@@H]4C)ncc3Cl)c3ncn(C)c(=O)c23)cc(C(N)=O)c1O [Compound I-144] | 10 | 10 |  |
| COc1c(O)c(C(N)=O)cc(-c2cn(CC(=O)Nc3cc(N4CCN(C)C[C@@H]4C)ncc3Cl)c3nc(C(F)(F)F)n(C)c(=O)c23)c1F [Compound I-266] | 2.78 | 1.61 |  |
| Cc1nc2c(c(-c3cc(Cl)c(O)c(C(N)=O)c3)cn2CC(=O)Nc2cc(N3CCN(CC4CC4)C[C@@H]3C)ncc2Cl)c(=O)n1C [Compound I-338] | 0.231 | 0.163 |  |
| CN1CC2CC(C1)N2c1cc(NC(=O)Cn2cc(-c3cc(F)c(O)c(C(N)=O)c3)c3c(=O)n(C)cnc32)c(Cl)cn1 [Compound I-450] |  |  | 43.6 |

— patent publication US11518764B2, “Substituted heteroaryls as inhibitors of the BCL6 BTB domain protein-protein interaction” (Ontario Institute for Cancer Research (OICR), priority 2018, dated 2022)
